Assay results as given in the Kinase Knowledgebase extract (Sharma et al. 2016).

Target: MAPK14 (human) (UniProt Q16539)
Test: Inhibition of MAPK14 Kinase Activity

MAPK14 (human), sequence (Q16539 whole entry, looked up): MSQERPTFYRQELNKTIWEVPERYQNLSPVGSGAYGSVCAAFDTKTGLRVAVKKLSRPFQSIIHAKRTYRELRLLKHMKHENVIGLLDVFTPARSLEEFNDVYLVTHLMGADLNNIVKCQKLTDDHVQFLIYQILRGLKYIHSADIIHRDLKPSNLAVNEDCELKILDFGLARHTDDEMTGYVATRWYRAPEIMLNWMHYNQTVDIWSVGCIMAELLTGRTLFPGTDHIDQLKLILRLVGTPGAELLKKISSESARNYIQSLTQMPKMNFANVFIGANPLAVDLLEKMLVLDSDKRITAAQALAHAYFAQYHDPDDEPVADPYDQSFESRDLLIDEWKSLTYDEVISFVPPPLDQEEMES

SMILES | IC50 [µM]
CC(C)NC(=O)c1coc(-c2c(-c3ccc(F)cc3)noc2C2CCNCC2)n1 | ≤ 1
Cc1nc(Br)sc1C(=O)NCc1nc(-c2ccc(F)cc2)c(-c2nc(C(=O)NC(C)C)cs2)o1 | ≤ 1
CC(C)NC(=O)c1csc(-c2c(-c3ccc(F)cc3)n[nH]c2C2CCN(C(=O)C(C)(C)O)CC2)n1 | ≤ 1
CC(C)NC(=O)c1csc(-c2oc(CN3CCN(C(=O)C4CCc5ccccc54)CC3)nc2-c2ccc(F)cc2)n1 (centres undefined) | ≤ 1
CC(C)NC(=O)c1csc(-c2c(-c3ccc(F)cc3)noc2C2CCNCC2)n1 | ≤ 1
CCC(CO)NCc1nc(-c2ccc(F)cc2)c(-c2nc(C(=O)NC(C)C)cs2)o1 (centres undefined) | ≤ 1
CC(C)NC(=O)c1csc(-c2c(-c3ccc(F)cc3)n[nH]c2C2CCN(C(=O)C(C)O)CC2)n1 (centres undefined) | ≤ 1
CC(C)NC(=O)c1csc(-c2oc(CNC(=O)c3ccc(Oc4cccc(O)c4)cc3)nc2-c2ccc(F)cc2)n1 | ≤ 1
CC1=C(CCC(=O)N2CCN(Cc3nc(-c4ccc(F)cc4)c(-c4nc(C(=O)NC(C)C)cs4)o3)CC2)C=CCO1 | ≤ 1
Cc1nc(-c2ccc(F)cc2)c(-c2nc(C(=O)NCC#N)cs2)s1 | ≤ 1
COc1ccc(NC(=O)c2csc(-c3sc(C)nc3-c3ccc(F)cc3)n2)c(C)c1 | ≤ 1
O=C(NC1CCCC1)c1csc(-c2c(-c3ccc(F)cc3)n[nH]c2C2CCNCC2)n1 | ≤ 1
COc1cc(CNC(=O)c2csc(-c3sc(C)nc3-c3ccc(F)cc3)n2)cc(OC)c1 | ≤ 1
CC(=O)N1CCC(n2cnc(-c3ccc(Cl)cc3)c2-c2nc(C(=O)NC(C)C)cs2)CC1 | ≤ 1
Cc1nc(-c2ccc(F)cc2)c(-c2nc(C(=O)Nc3ccc(C(F)(F)F)cc3C(F)(F)F)cs2)s1 | ≤ 1
CC(C)NC(=O)c1csc(-c2oc(CNC(=O)c3ccccc3Cl)nc2-c2ccc(F)cc2)n1 | ≤ 1
Cc1nc(-c2ccc(F)cc2)c(-c2nc(C(=O)NCc3cccs3)cs2)s1 | ≤ 1
Cc1nc(-c2ccc(F)cc2)c(-c2nc(C(=O)NCc3ccc(F)c(F)c3)cs2)s1 | ≤ 1
COc1ccc(C(=O)N2CCN(Cc3nc(-c4ccc(F)cc4)c(-c4nc(C(=O)NC(C)C)cs4)o3)CC2)c(OC)c1OC | ≤ 1
CC(=O)NCC(=O)NCc1nc(-c2ccc(F)cc2)c(-c2nc(C(=O)NC(C)C)cs2)o1 | ≤ 1
CC(C)NC(=O)c1csc(-c2oc(CNC(=O)c3cc(Br)ccc3Cl)nc2-c2ccc(F)cc2)n1 | ≤ 1
CC(C)NC(=O)c1csc(-c2oc(CNC(=O)c3cc([N+](=O)[O-])ccc3Cl)nc2-c2ccc(F)cc2)n1 | ≤ 1
Cc1nc(-c2ccc(F)cc2)c(-c2nc(C(=O)NCc3ccc(N(C)C)cc3)cs2)s1 | ≤ 1
CC(C)NC(=O)c1csc(-c2c(-c3ccc(F)cc3)n[nH]c2C2CCN(C(=O)c3ccccc3)CC2)n1 | ≤ 1
C#CCNC(=O)c1csc(-c2sc(C)nc2-c2ccc(F)cc2)n1 | ≤ 1

Continued, values first:

IC50 [µM] | SMILES
≤ 1 | CC(C)NC(=O)c1csc(-c2oc(CN3CCN(C(=O)c4c(F)c(F)c(F)c(F)c4F)CC3)nc2-c2ccc(F)cc2)n1
≤ 1 | CC(C)NC(=O)c1csc(-c2c(-c3ccc(F)cc3)noc2CN2CCCC2CO)n1 (centres undefined)
≤ 1 | Cc1[nH]nc(-c2ccc(F)cc2)c1-c1nc(C(=O)NCc2cccnc2)cs1
≤ 1 | Cc1nc(-c2ccc(F)cc2)c(-c2nc(C(=O)NCCN3CCCC3)cs2)s1
≤ 1 | CC(C)NC(=O)c1csc(-c2oc(CNC(=O)Cc3ccccc3O)nc2-c2ccc(F)cc2)n1
≤ 1 | CC(C)NC(=O)c1csc(-c2oc(CNC(=O)Cc3ccc(O)c(F)c3)nc2-c2ccc(F)cc2)n1
≤ 1 | CC(C)NC(=O)c1csc(-c2oc(CN3CCN(C(=O)c4ccc(O)cc4O)CC3)nc2-c2ccc(F)cc2)n1
≤ 1 | Cc1onc(-c2ccc(Cl)cc2)c1-c1cc(C)n(C(=O)NC(C)C)n1
≤ 1 | COc1ccc(CNC(=O)c2csc(-c3sc(C)nc3-c3ccc(F)cc3)n2)cc1OC
≤ 1 | CC(C)NC(=O)c1csc(-c2oc(CNC3CCN(Cc4ccccc4)C3)nc2-c2ccc(F)cc2)n1 (centres undefined)
≤ 1 | CC(C)NC(=O)c1csc(-c2[nH]c(CN3CCNCC3)nc2-c2ccc(F)cc2)n1
≤ 1 | COc1cccc(OC)c1C(=O)N1CCN(Cc2nc(-c3ccc(F)cc3)c(-c3nc(C(=O)NC(C)C)cs3)o2)CC1
≤ 1 | CCNC(=O)c1csc(-c2c(-c3ccc(F)cc3)n[nH]c2C)n1
≤ 1 | CC(C)NC(=O)c1csc(-c2[nH]c(CN(C)C)nc2-c2ccc(F)cc2)n1
